{"source": "patent US20020052295A1", "about": "“Diacyl derivatives of propylene diamine having herbicidal activity” (priority 1999, published 2002)", "key": {"corn (maize)": {"system": "corn (maize)", "assay": "Field trials, crop selectivity in corn", "format": "in vivo", "settings": "pre-emergence rates giving acceptable weed control"}, "PANMI": {"system": "PANMI", "assay": "Pre-emergence herbicidal activity on PANMI (wild proso millet)", "format": "in vivo, Panicum miliaceum", "in_short": "(§1)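 GR80 from percent growth inhibition versus untreated controls, rated about 14 days after planting and pre-emergence soil-surface application. Compound applied in 50:50 acetone:water over freshly covered seeds; pots kept in greenhouse at 30/21 °C day/night.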"}, "rice": {"system": "rice", "settings": "field trials; pre-emergence"}, "DIGSA": {"system": "DIGSA", "assay": "Pre-emergence herbicidal activity on DIGSA (large crabgrass)", "format": "in vivo, Digitaria sanguinalis", "in_short": "as §1"}, "soybeans": {"system": "soybeans", "assay": "Field trials, crop selectivity in soybeans", "format": "in vivo", "settings": "pre-emergence rates giving acceptable weed control"}, "cotton": {"system": "cotton", "settings": "field trials; pre-emergence"}, "CHEAL": {"system": "CHEAL", "assay": "Pre-emergence herbicidal activity on CHEAL (common lambsquarters)", "format": "in vivo, Chenopodium album", "in_short": "as §1"}, "ECHCG": {"system": "ECHCG", "assay": "Pre-emergence herbicidal activity on ECHCG (barnyardgrass)", "format": "in vivo, Echinochloa crus-galli", "settings": "racemic mixture vs enantiomers test; rates tested 1000, 650, 300, 200, 100, 65, 30 and 10 g/ha; lowest rate with 80% or greater inhibition", "in_short": "as §1"}, "SETFA": {"system": "SETFA", "assay": "Pre-emergence herbicidal activity on SETFA (giant foxtail)", "format": "in vivo, Setaria faberi", "in_short": "as §1"}, "sorghum": {"system": "sorghum", "assay": "Field trials, crop selectivity in sorghum", "format": "in vivo", "settings": "pre-emergence rates giving acceptable weed control"}, "PANDI": {"system": "PANDI", "assay": "Pre-emergence herbicidal activity on PANDI (fall panicum)", "format": "in vivo, Panicum dichotomiflorum", "in_short": "as §1"}, "SORVU": {"system": "SORVU", "assay": "Pre-emergence herbicidal activity on SORVU (shattercane)", "format": "in vivo, Sorghum vulgare", "settings": "racemic mixture vs enantiomers test; rates tested 1000, 650, 300, 200, 100, 65, 30 and 10 g/ha; lowest rate with 80% or greater inhibition", "in_short": "as §1"}, "AMARE": {"system": "AMARE", "assay": "Pre-emergence herbicidal activity on AMARE (redroot pigweed)", "format": "in vivo, Amaranthus retroflexus", "in_short": "as §1"}, "[1]": {"system": "several weed species, predominantly dicotyledonous species", "assay": "Field trials, pre-emergence weed control", "format": "in vivo", "settings": "pre-emergence application"}, "POROL": {"system": "POROL", "assay": "Pre-emergence herbicidal activity on POROL (common purslane)", "format": "in vivo, Portulaca oleracea", "in_short": "as §1"}, "dicotyledonous species": {"system": "dicotyledonous species", "assay": "Pre-emergence test (later test), average GR80 on dicotyledonous species", "format": "in vivo", "settings": "average over dicotyledonous species", "source_text": "(§2) All such uses, and the biological activity enabling such uses, are embraced by the term “herbicidal” herein. Tables 15 and 16 summarize results of tests conducted as described below to determine the pre-emergence herbicidal activity, in the form of a GR80 value, of illustrative compounds of this invention. […] Where herbicidal activity was evident but 80% inhibition was not achieved at the highest rate tested (typically 1000 g/ha), an asterisk (*) is shown in the following tables. Herbicidal activity evident in the form of symptoms of phytotoxicity, in the absence of at least 80% inhibition at any rate, is indicated in the tables by “phyto”. A blank cell in the following tables indicates no herbicidal or phytotoxic response at any rate tested.\n(§3) The pre-emergence tests were conducted by the following procedure. Topsoil was sieved to pass through a 1.27 cm screen. Fertilizer was added to the topsoil and the mixture was then sterilized by heating. The topsoil mixture was placed in a pot and compacted to a depth of 1.0 to 1.25 cm from the top of the pot. Seeds of each of several monocotyledonous and dicotyledonous annual plant species were placed on top of the soil. […]\n(§4) Approximately 14 days after planting and treating, the plants were observed and herbicidal efficacy recorded as percent inhibition by comparison with untreated plants. […]"}, "monocotyledonous species": {"system": "monocotyledonous species", "assay": "Pre-emergence test (later test), GR80 on monocotyledonous species", "format": "in vivo", "settings": "average over monocotyledonous species", "source_text": "as §2, §3, §4"}, "SORHA": {"system": "SORHA", "assay": "Pre-emergence herbicidal activity on SORHA (johnsongrass, seedling)", "format": "in vivo, Sorghum halepense", "in_short": "as §1"}, "CIRAR": {"system": "CIRAR", "assay": "Pre-emergence herbicidal activity on CIRAR (canada thistle, seedling)", "format": "in vivo, Cirsium arvense", "in_short": "as §1"}, "CONAR": {"system": "CONAR", "assay": "Pre-emergence herbicidal activity on CONAR (field bindweed)", "format": "in vivo, Convolvulus arvensis", "in_short": "as §1"}, "DATST": {"system": "DATST", "assay": "Pre-emergence herbicidal activity on DATST (jimsonweed)", "format": "in vivo, Datura stramonium", "in_short": "as §1"}, "BRAPP": {"system": "BRAPP", "assay": "Pre-emergence herbicidal activity on BRAPP (broadleaf signalgrass)", "format": "in vivo, Brachiaria platyphylla", "in_short": "as §1"}, "ABUTH": {"system": "ABUTH", "assay": "Pre-emergence herbicidal activity on ABUTH (velvetleaf)", "format": "in vivo, Abutilon theophrasti", "in_short": "as §1"}, "SOLNI": {"system": "SOLNI", "assay": "Pre-emergence herbicidal activity on SOLNI (black nightshade)", "format": "in vivo, Solanum nigrum", "in_short": "as §1"}, "[2]": {"system": "monocotyledonous and dicotyledonous annual plant species", "assay": "Greenhouse pre-emergence test, all species of the test taken together", "format": "in vivo", "source_text": "All such uses, and the biological activity enabling such uses, are embraced by the term “herbicidal” herein. […] Where herbicidal activity was evident but 80% inhibition was not achieved at the highest rate tested (typically 1000 g/ha), an asterisk (*) is shown in the following tables. Herbicidal activity evident in the form of symptoms of phytotoxicity, in the absence of at least 80% inhibition at any rate, is indicated in the tables by “phyto”. A blank cell in the following tables indicates no herbicidal or phytotoxic response at any rate tested.\nThe pre-emergence tests were conducted by the following procedure. Topsoil was sieved to pass through a 1.27 cm screen. Fertilizer was added to the topsoil and the mixture was then sterilized by heating. The topsoil mixture was placed in a pot and compacted to a depth of 1.0 to 1.25 cm from the top of the pot. Seeds of each of several monocotyledonous and dicotyledonous annual plant species were placed on top of the soil. Additional soil was subsequently placed over the seeds to level-fill the pot. A known amount of each test compound dissolved or suspended in an appropriate organic solvent was diluted with a 50:50 mix of acetone and water and applied to the surface of the soil. After treatment the plants were placed in a greenhouse with a 30/21° C. day/night temperature regime where they received 0.64 cm of overhead irrigation. All subsequent watering consisted of a light overhead mist and/or subirrigation as needed for germination and growth.\nPre-emergence herbicidal activity of the compound of Example 5, a racemic mixture of R- and S-enantiomers of N,N′-(1,2-propanediylbis)-3-(trifluoromethyl) benzamide, was compared with that of the individual R- and S-enantiomers, the compounds of Examples 5a and 5b respectively. The procedure was exactly as described above. Rates tested were 1000, 650, 300, 200, 100, 65, 30 and 10 g/ha.\nIn a greenhouse pre-emergence test conducted according to the procedure described hereinabove, R—N,N′-(1,2-propanediylbis)-3-(trifluoromethyl)benzamide (the compound of Example 5a) was applied at 200 g/ha and acetochlor was applied at 100 g/ha, both individually and in combination.\nIn the same greenhouse pre-emergence test, R-2-fluoro-3-trifluoromethyl-N-[1-methyl-2-(3-trifluoromethyl)phenylcarbonylamino]ethylbenzamide (the compound of Example 13) was applied at 100 g/ha and acetochlor was applied at 100 g/ha, both individually and in combination."}, "[3]": {"settings": "pre-emergence application, Example 5a 200 g/ha alone"}, "[4]": {"settings": "racemic mixture vs enantiomers test, rates tested 1000, 650, 300, 200, 100, 65, 30 and 10 g/ha, lowest rate with 80% or greater inhibition"}}, "data": [{"smiles": "C[C@H](CNC(=O)c1cccc(C(F)(F)F)c1)NC(=O)c1cccc(C(F)(F)F)c1", "note": "[Example 5a, R—N,N′-(1,2-propanediylbis)-3-(trifluoromethyl)benzamide]", "values": [{"measurement": "crop injury, corn (maize)", "setting": "corn (maize)", "result": "not injurious"}, {"measurement": "Percent control PANMI", "setting": "PANMI; [3]", "result": 20, "unit": "%"}, {"measurement": "Pre-emergence activity (GR80) PANMI", "setting": "PANMI; [4]", "result": 300, "unit": "g/ha"}, {"measurement": "crop selectivity, rice", "setting": "rice", "result": "not to be adequately selective"}, {"measurement": "Percent control DIGSA", "setting": "DIGSA; [3]", "result": 82, "unit": "%"}, {"measurement": "Pre-emergence activity (GR80) DIGSA", "setting": "DIGSA; [4]", "result": 65, "unit": "g/ha"}, {"measurement": "crop injury, soybeans", "setting": "soybeans", "result": "not injurious"}, {"measurement": "crop selectivity, cotton", "setting": "cotton", "result": "not to be adequately selective"}, {"measurement": "Percent control CHEAL", "setting": "CHEAL; [3]", "result": 100, "unit": "%"}, {"measurement": "Pre-emergence activity (GR80) CHEAL", "setting": "CHEAL; [4]", "result": 65, "unit": "g/ha"}, {"measurement": "Pre-emergence activity (GR80) ECHCG", "setting": "ECHCG", "result": "phyto"}, {"measurement": "Percent control SETFA", "setting": "SETFA; [3]", "result": 40, "unit": "%"}, {"measurement": "Pre-emergence activity (GR80) SETFA", "setting": "SETFA; [4]", "result": "phyto"}, {"measurement": "crop injury, sorghum", "setting": "sorghum", "result": "not injurious"}, {"measurement": "Percent control PANDI", "setting": "PANDI; [3]", "result": 55, "unit": "%"}, {"measurement": "Pre-emergence activity (GR80) PANDI", "setting": "PANDI; [4]", "result": 200, "unit": "g/ha"}, {"measurement": "Pre-emergence activity (GR80) SORVU", "setting": "SORVU", "result": "[empty]"}, {"measurement": "Percent control AMARE", "setting": "AMARE; [3]", "result": 100, "unit": "%"}, {"measurement": "Pre-emergence activity (GR80) AMARE", "setting": "AMARE; [4]", "result": 30, "unit": "g/ha"}, {"measurement": "weed control in field trials", "setting": "[1]", "result": "acceptable control"}, {"measurement": "Percent control POROL", "setting": "POROL; [3]", "result": 100, "unit": "%"}, {"measurement": "Pre-emergence activity (GR80) PORAL", "setting": "POROL; [4]", "result": 30, "unit": "g/ha"}, {"measurement": "average pre-emergence GR80 on dicotyledonous species", "setting": "dicotyledonous species", "result": 235, "unit": "g/ha"}, {"measurement": "pre-emergence GR80 on monocotyledonous species", "setting": "monocotyledonous species", "result": 711, "unit": "g/ha"}, {"measurement": "Percent control SORHA", "setting": "SORHA; [3]", "result": 30, "unit": "%"}, {"measurement": "Pre-emergence activity (GR80) SORHA", "setting": "SORHA; [4]", "result": "phyto"}, {"measurement": "Percent control CIRAR", "setting": "CIRAR; [3]", "result": 35, "unit": "%"}, {"measurement": "Pre-emergence activity (GR80) CIRAR", "setting": "CIRAR; [4]", "result": 1000, "unit": "g/ha"}, {"measurement": "Percent control CONAR", "setting": "CONAR; [3]", "result": 22, "unit": "%"}, {"measurement": "Pre-emergence activity (GR80) CONAR", "setting": "CONAR; [4]", "result": "phyto"}, {"measurement": "Percent control DATST", "setting": "DATST; [3]", "result": 41, "unit": "%"}, {"measurement": "Pre-emergence activity (GR80) DATST", "setting": "DATST; [4]", "result": 650, "unit": "g/ha"}, {"measurement": "Percent control BRAPP", "setting": "BRAPP; [3]", "result": 15, "unit": "%"}, {"measurement": "Pre-emergence activity (GR80) BRAPP", "setting": "BRAPP; [4]", "result": "phyto"}, {"measurement": "Percent control ABUTH", "setting": "ABUTH; [3]", "result": 8, "unit": "%"}, {"measurement": "Pre-emergence activity (GR80) ABUTH", "setting": "ABUTH; [4]", "result": 650, "unit": "g/ha"}, {"measurement": "Percent control SOLNI", "setting": "SOLNI; [3]", "result": 100, "unit": "%"}, {"measurement": "Pre-emergence activity (GR80) SOLNI", "setting": "SOLNI; [4]", "result": 200, "unit": "g/ha"}, {"measurement": "herbicidal activity of the combination compared with expectation", "setting": "[2]; Example 5a 200 g/ha + acetochlor 100 g/ha, at least on ABUTH, DATST, SORHA and PANMI", "result": "greater than expected herbicidal activity"}, {"measurement": "number of the 14 species showing >85% control", "setting": "[2]; Example 5a 200 g/ha in combination with acetochlor 100 g/ha", "result": 11}, {"measurement": "number of the 14 species showing >85% control", "setting": "[2]; Example 5a alone at 200 g/ha", "result": 4}, {"measurement": "GR80 values relative to those of the racemic mixture", "setting": "[2]; typical over species of Tables 19 and 20", "result": "about one-half"}]}]}
